Read-outs that look alike come from different tables or passages of the source.
Columns and labels:
[1] = test system: K. pneumoniae strains with elevated MICs to Polymyxin B; test: MIC against strains with elevated MICs to Polymyxin B; format: cell-based, Klebsiella pneumoniae; conditions: Table 6D; for MIC K. pneumoniae 062: strain 062, elevated MIC to Polymyxin B; for MIC K. pneumoniae 063: strain 063, elevated MIC to Polymyxin B; for MIC K. pneumoniae 064: strain 064, elevated MIC to Polymyxin B; for MIC K. pneumoniae 655: strain 655, elevated MIC to Polymyxin B
How it was run: (§1)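 Reported MIC is the lower of duplicates agreeing within 2-fold, or the mode where compounds were tested repeatedly. Assays with greater than 2-fold duplicate variation were rejected. Colonies grown 18-24 hours on Mueller-Hinton agar were suspended to 0.5 McFarland as inoculum.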

[2] = test system: P. aeruginosa strains with elevated MICs to Polymyxin B; test: MIC against strains with elevated MICs to Polymyxin B; format: cell-based, Pseudomonas aeruginosa; conditions: Table 6D; for MIC P. aeruginosa 066: strain 066, elevated MIC to Polymyxin B; for MIC P. aeruginosa 067: strain 067, elevated MIC to Polymyxin B; for MIC P. aeruginosa 065: strain 065, elevated MIC to Polymyxin B
How it was run: as §1

[3] = test system: A. baumanii strains with elevated MICs to Polymyxin B; test: MIC against strains with elevated MICs to Polymyxin B; format: cell-based, Acinetobacter baumannii; conditions: Table 6D; for MIC A. baumannii 053: strain 053, elevated MIC to Polymyxin B; for MIC A. baumannii 056: strain 056, elevated MIC to Polymyxin B; for MIC A. baumannii 068: strain 068, elevated MIC to Polymyxin B; for MIC A. baumannii 070: strain 070, elevated MIC to Polymyxin B
How it was run: as §1

[4] = test system: E. coli strains with elevated MICs to Polymyxin B; test: MIC against strains with elevated MICs to Polymyxin B; format: cell-based, Escherichia coli; conditions: Table 6D; for MIC E. coli 059: strain 059, elevated MIC to Polymyxin B; for MIC E. coli 060: strain 060, elevated MIC to Polymyxin B; for MIC E. coli 061: strain 061, elevated MIC to Polymyxin B; for MIC E. coli 058: strain 058, elevated MIC to Polymyxin B
How it was run: as §1

[5] = absence of a second agent, Table 6B

Substance	MIC, A. baumannii ATCC BAA-747 (A. baumannii; [5])	MIC, A. baumannii NCTC 13424 (A. baumannii; [5])	MIC K. pneumoniae 062 [1]	MIC K. pneumoniae 063 [1]	MIC K. pneumoniae 064 [1]	MIC K. pneumoniae 655 [1]	MIC, K. pneumoniae ATCC BAA-2146 (K. pneumoniae; [5])	MIC P. aeruginosa 066 [2]	MIC P. aeruginosa 067 [2]	MIC, E. coli ATCC 25922 (E. coli; [5])	MIC, E. coli NCTC 13441 (E. coli; [5])	MIC A. baumannii 053 [3]	MIC A. baumannii 056 [3]	MIC A. baumannii 068 [3]	MIC A. baumannii 070 [3]	MIC, P. aeruginosa ATCC 27853 (P. aeruginosa; [5])	MIC, P. aeruginosa CCUG 59347 (P. aeruginosa; [5])	MIC E. coli 059 [4]	MIC E. coli 060 [4]	MIC E. coli 061 [4]	other results
(cis-5-octylpiperidine)- 3-carbonyl polymyxin B nonapeptide [Example D20]	>8 micrograms/mL	>8 micrograms/mL	>64 micrograms/mL	>64 micrograms/mL	>64 micrograms/mL	>64 micrograms/mL	>8 micrograms/mL	64 micrograms/mL	>64 micrograms/mL	4 micrograms/mL	4 micrograms/mL	>64 micrograms/mL	>64 micrograms/mL	32 micrograms/mL	64 micrograms/mL	0.5 micrograms/mL	1 micrograms/mL	4 micrograms/mL	16 micrograms/mL	32 micrograms/mL	MIC, K. pneumoniae ATCC 4352 (K. pneumoniae; [5]): 8 micrograms/mL
(cis-5-octylpiperidine)- 3-carbonyl polymyxin B nonapeptide [Example D21]	0.5 micrograms/mL	2 micrograms/mL	2 micrograms/mL	32 micrograms/mL	1 micrograms/mL	32 micrograms/mL	1 micrograms/mL	2 micrograms/mL	4 micrograms/mL	0.5 micrograms/mL	0.5 micrograms/mL	8 micrograms/mL	4 micrograms/mL	1 micrograms/mL	2 micrograms/mL	0.5 micrograms/mL	0.5 micrograms/mL	0.5 micrograms/mL	1 micrograms/mL	2 micrograms/mL	MIC, K. pneumoniae ATCC 4352 (K. pneumoniae; [5]): 0.25 micrograms/mL; MIC E. coli 058 [4]: 1 micrograms/mL
(trans-5- (cyclohexyl- piperidine)-3- carbonyl L-Thr-L- Dap-polymyxin B heptapeptide [Example D78]				4 micrograms/mL	1 micrograms/mL	4 micrograms/mL		0.5 micrograms/mL	32 micrograms/mL			8 micrograms/mL	50.25 micrograms/mL	1 micrograms/mL	1 micrograms/mL			0.5 micrograms/mL	1 micrograms/mL	1 micrograms/mL	MIC, A. baumannii ATCC BAA-747 (A. baumannii; sole activity, Table 6C): 0.06 micrograms/mL; MIC, A. baumannii NCTC 13424 (A. baumannii; sole activity, Table 6C): 0.06 micrograms/mL; MIC, K. pneumoniae ATCC 4352 (K. pneumoniae; sole activity, Table 6C): 0.06 micrograms/mL; MIC, K. pneumoniae ATCC BAA-2146 (K. pneumoniae; sole activity, Table 6C): 0.125 micrograms/mL; MIC P. aeruginosa 065 [2]: 1 micrograms/mL; MIC, E. coli ATCC 25922 (E. coli; sole activity, Table 6C): 0.125 micrograms/mL; MIC, E. coli NCTC 13441 (E. coli; sole activity, Table 6C): 0.125 micrograms/mL; MIC, P. aeruginosa ATCC 27853 (P. aeruginosa; sole activity, Table 6C): 0.5 micrograms/mL; MIC, P. aeruginosa CCUG 59347 (P. aeruginosa; sole activity, Table 6C): 0.5 micrograms/mL; MIC E. coli 058 [4]: 0.5 micrograms/mL
(trans-5- octylpiperidine)-3- carbonyl polymyxin B nonapeptide [Example D22]	>8 micrograms/mL	>8 micrograms/mL	>64 micrograms/mL	>64 micrograms/mL	>64 micrograms/mL	>256 micrograms/mL	>8 micrograms/mL	>64 micrograms/mL	>64 micrograms/mL	4 micrograms/mL	4 micrograms/mL	>64 micrograms/mL	>64 micrograms/mL	4 micrograms/mL	4 micrograms/mL	2 micrograms/mL	1 micrograms/mL	8 micrograms/mL	16 micrograms/mL	64 micrograms/mL	
(trans-5- octylpiperidine)-3- carbonyl polymyxin B nonapeptide [Example D23]	0.25 micrograms/mL	0.25 micrograms/mL	4 micrograms/mL	4 micrograms/mL	1 micrograms/mL	4 micrograms/mL	1 micrograms/mL	1 micrograms/mL	8 micrograms/mL		1 micrograms/mL	2 micrograms/mL	0.5 micrograms/mL	1 micrograms/mL	1 micrograms/mL	0.5 micrograms/mL	0.5 micrograms/mL	0.25 micrograms/mL	1 micrograms/mL	1 micrograms/mL	MIC P. aeruginosa 065 [2]: 0.5 micrograms/mL; MIC E. coli 058 [4]: 0.5 micrograms/mL

Source: patent US20210221848A1, “POLYMYXIN DERIVATIVES AND THEIR USE IN COMBINATION THERAPY TOGETHER WITH DIFFERENT ANTIBIOTICS” (priority 2014, published 2021)
